Results published in ChEMBL document CHEMBL3399921, “Novel 2-(2-phenalkyl)-1H-benzo[d]imidazoles as antitubercular agents. Synthesis, biological evaluation and structure-activity relationship” (Bioorg Med Chem, 2015).
≈ marks a conversion by molar mass, not a printed value.

These compounds were tested on Mycobacterium tuberculosis variant bovis (assay: Tuberculostatic activity against Mycobacterium bovis by two-fold classical test-tube method).
Type: functional

Row | Structure (SMILES) | MIC [µM]
1 | Cc1cc2nc(CCc3cc(Cl)cc(Cl)c3)[nH]c2cc1C | 19 (≈ 6.07 µg/mL)
2 | Nc1c(NC(=O)CCc2cc(Cl)cc(Cl)c2)cc(Cl)cc1[N+](=O)[O-] | 65 (≈ 25.3 µg/mL)
3 | Cc1cc2nc(CCc3ccccc3)[nH]c2cc1C | 6.3 (≈ 1.58 µg/mL)
